US7285569B2, “Tricycles, their manufacture and use as pharmaceutical agents” (Hoff Hoffmann-La Roche Inc., priority 2004, dated 2007)

Columns and labels:
Aurora A = molecular target: T1, Aurora A (Homo sapiens, UniProt O14965); experiment: IC50 determination for inhibitors of Aurora A (96 MTP-ELISA); type: biochemical; details: His4-tagged full-length Aurora A 250 ng/ml, PKB-GSK2 200 nM, ATP 4 μM, 90 min at room temperature; read-out: IC50 Aurora A kinase inhibition
T1 construct: C-terminally Histidine4 (His4)-tagged Aurora A full-length protein
T1 sequence (O14965 1-403): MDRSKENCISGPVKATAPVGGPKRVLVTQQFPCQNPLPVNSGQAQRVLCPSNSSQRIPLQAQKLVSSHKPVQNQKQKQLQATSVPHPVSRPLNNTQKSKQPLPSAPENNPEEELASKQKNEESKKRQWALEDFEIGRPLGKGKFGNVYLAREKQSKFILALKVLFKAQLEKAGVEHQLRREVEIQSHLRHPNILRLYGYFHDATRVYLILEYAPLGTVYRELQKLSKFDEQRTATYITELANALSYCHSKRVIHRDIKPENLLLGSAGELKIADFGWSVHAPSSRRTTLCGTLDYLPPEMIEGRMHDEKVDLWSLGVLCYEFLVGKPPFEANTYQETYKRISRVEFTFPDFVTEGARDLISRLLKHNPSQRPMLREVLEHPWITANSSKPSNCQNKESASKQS
Text: IC50 Determination for Inhibitors of Aurora A
Aurora A is a serine threonine kinase involved in spindle assembly and chromosome segregation.
The assay is a typically ELISA-type assay where biotinylated substrate (PKB-GSK2) is phosphorylated. Phosphorylation is detected by peroxidase (POD) labelled polyclonal antibody (PAK<M-Ig>S-IgG-POD) and phosphopeptide monoclonal antibody (Mab) (MAK<P-GSK>M-27E5-IgG). The assay is validated for IC50-determination.
Aurora A-His-4 C-terminally Histidine4 (His4)-tagged Aurora A full-length protein, stock solution 0.7 mg/ml, final conc.: 250 ng/ml
PKB-GSK2 biotinylated peptide derived from human GSK3-alpha sequence (Biotin-SGRARTSSFAEPGG-CONH2), stock solution 600 μM, final conc.: 200 nM
ATP Adenosine-5′-triphosphate 1 mM, diluted in kinase buffer, (Roche Diagnostics GmbH, Cat. No.: 127531-001,), final conc.: 4 μM
Kinase buffer 50 mM TRIS, 10 mM MgCl2, 1 mM DTT, 0.1% Tween 20, pH 7.8
This assay is performed in 96-well format for IC50 determination with 5 samples (each with 8 concentrations by twofold testing), 100 μl incubation volume and the following plate layout:
Step/Action 1. Sample preparation: add 24 μl per well samples (descending sequence) diluted in kinase buffer to assay plate (final conc. for DMSO 1%). 2. Add directly 16 μl Aurora-A-his-4 diluted in kinase buffer to assay plate. 3. Add directly 40 μl per well PKB-GSK2/ATP mixture to assay plate, (final conc.: Aurora A=250 ng/ml, GSK2=200 nM, ATP=4 μM). Negative control: without ATP. 4. Incubate assay plate for exactly 90 min at room temperature. 5. Stop reaction by adding 20 μl EDTA in all wells. 6. Wash assay plate 3× with 200 μl washing buffer per well. 7. Add 100 μl MAK<P-GSK>M27E5-IgG (1:10000) and PAK<M-Ig>S-IgG-POD (1:6000) dissolved in 3% BSA/PBS-T to assay plate per well. 8. Incubate assay plate for 60 min at room temperature. 9. Wash assay plate 3× with 200 μl washing buffer per well 10. Add 100 μl ABTS solution to assay plate per well, incubate for approx. 4 min at RT on MTP shaker. 11. Measure absorption at 405/492 nm. 12. Calculate % inhibition as: (1−(Esample−ENC)/(EPC−ENC))×100 13. Calculate IC50 using a non-linear curve fit (XLfit software (ID Business Solution Ltd., Guilford, Surrey, UK))

HCT 116 cells = experiment: CellTiter-Glo assay in HCT 116 cells (antiproliferative activity); type: cell-based; details: HCT 116 human colon carcinoma cells, 5 days (120 h) incubation, CellTiter-Glo luminescence
Text: Antiproliferative Activity
CellTiter-Glo™ Assay in HCT 116 Cells
The CellTiter-Glo™ Luminescent Cell Viability Assay (Promega) is a homogeneous method of determining the number of viable cells in culture based on quantitation of the ATP present, which signals the presence of metabolically active cells.
HCT 116 cells (human colon carcinoma, ATCC-No. CCI-247) were cultivated in RPMI 1640 medium with GlutaMAX™ I (Invitrogen, Cat-No. 61870-010), 2.5% Fetal Calf Serum (FCS, Sigma Cat-No. F4135 (FBS)); 100 Units/ml penicillin/100 μg/ml streptomycin (=Pen/Strep from Invitrogen Cat. No. 15140). For the assay the cells were seeded in 384 well plates, 1000 cells per well, in the same medium. The next day the test compounds were added in various concentrations ranging from 30 μM to 0.0015 μM (10 concentrations, 1:3 diluted). After 5 days the CellTiter-Glo™ assay was done according to the instructions of the manufacturer (CellTiter-Glo™ Luminescent Cell Viability Assay, from Promega). In brief: the cell-plate was equilibrated to room temperature for approximately 30 minutes and than the CellTiter-Glo™ reagent was added. The contents were carefully mixed for 15 minutes to induce cell lysis. After 45 minutes the luminescent signal was measured in Victor 2, (scanning multiwell spectrophotometer, Wallac).
Medium: RPMI 1640 with GlutaMAX™ I (Invitrogen, Cat-Nr. 61870), 5% FCS (Sigma Cat.-No. F4135), Pen/Strep (Invitrogen, Cat No. 15140).
HCT116 (ATCC-No. CCI-247): 1000 cells in 60 μl per well of 384 well plate (Greiner 781098, μClear-plate white)
After seeding incubate plates 24 h at 37° C., 5% CO2
2nd. Day: Induction (Treatment with Compounds, 10 Concentrations):
In order to achieve a final concentration of 30 μM as highest concentration 3.5 μl of 10 mM compound stock solution were added directly to 163 μl media. Then step e) of the dilution procedure described below, was followed.
In order to achieve the second highest to the lowest concentrations, a serial dilution with dilution steps of 1:3 was followed according to the procedure (a-e) as described here below: • for the second highest concentration add 10 μl of 10 mM stock solution of compound to 20 μl dimethylsulfoxide (DMSO) • dilute 8×1:3 (always 10 μl to 20 μl DMSO) in this DMSO dilution row (results in 9 wells with concentrations from 3333.3 μM to 0.51 μM) • dilute each concentration 1:47.6 (3.5 μl compound dilution to 163 μl media) • add 10 μl of every concentration to 60 μl media in the cell plate resulting in final concentration of DMSO: 0.3% in every well and resulting in 10 final concentration of compounds ranging from 30 μM to 0.0015 μM. • Each compound is tested in triplicate. • Incubate 120 h (5 days) at 37° C., 5% CO2 Analysis:
Add 30 μl CellTiter-Glo™ Reagent (prepared from CellTiter-Glo™ Buffer and CellTiter-Glo™ Substrate (lyophilized) purchased from Promega) per well, • shake 15 minutes at room temperature • incubate further 45 minutes at room temperature without shaking Measurement:
Victor 2 scanning multiwell spectrophotometer (Wallac), Luminescence mode (0.5 sec/read, 477 nm)
Determine IC50 using a non-linear curve fit (XLfit software (ID Business Solution Ltd., Guilford, Surrey, UK))

IC50 (Aurora A) | IC50 (HCT 116 cells) | SMILES
10 to 500 nM | 100 to 10000 nM | CCCc1cc(-c2nc3cc4c(cc3[nH]2)N(CCC)C(=O)C4(C)C)[nH]n1 [Example 37, 7,7-Dimethyl-5-propyl-2-(5-propyl-2H-pyrazol-3-yl)-5,7-dihydro-3H-imidazo[4,5-f]indol-6-one]
500 to 1500 nM | 100 to 10000 nM | CCCN1C(=O)C(C)(C)c2cc3[nH]c(-c4cc(C(F)(F)F)n[nH]4)nc3cc21 [Example 41, 7,7-Dimethyl-5-propyl-2-(5-trifluoromethyl-2H-pyrazol-3-yl)-5,7-dihydro-1H-imidazo[4,5-f]indol-6-one]
